Reference: ChEMBL document CHEMBL1667783 (Bioorg Med Chem Lett, 2011)

Tests used:
Format in all cases: functional, cell-based
[1] = system: HEp-2; assay: Cytotoxicity against human Hep2 cells after 48 hrs by MTT assay; conditions: HEp-2, 48 h
[2] = system: A-431; assay: Cytotoxicity against human A431 cells after 48 hrs by MTT assay; conditions: A-431, 48 h
[3] = system: MCF7; assay: Cytotoxicity against human MCF7 cells after 48 hrs by MTT assay; conditions: MCF7, 48 h
[4] = system: HeLa; assay: Cytotoxicity against human HeLa cells after 48 hrs by MTT assay
[5] = system: HepG2; assay: Cytotoxicity against human HepG2 cells after 48 hrs by MTT assay; conditions: HepG2, 48 h
[6] = system: SK-OV-3; assay: Cytotoxicity against human SKOV3 cells after 48 hrs by MTT assay; conditions: SK-OV-3, 48 h
[7] = system: A549; assay: Cytotoxicity against human A549 cells after 48 hrs by MTT assay; conditions: A549, 48 h
[8] = system: U-251; assay: Cytotoxicity against human U251 cells after 48 hrs by MTT assay; conditions: U-251, 48 h

COc1cc(/C=C/C(=O)/C=C(O)/C=C/c2ccc(-n3ccc4ccccc43)c(OC)c2)ccc1-n1ccc2ccccc21 was tested, and the IC50 [1] was > 100 µM, the IC50 [2] was > 100 µM and the IC50 [3] was > 100 µM. The IC50 [4] was > 100 µM, the IC50 [5] was > 100 µM and the IC50 [6] was > 100 µM. For the same compound, the IC50 [7] was > 100 µM.
COc1cc(/C=C/C(=O)/C=C(O)/C=C/c2ccc(-n3ccnc3)c(OC)c2)ccc1-n1ccnc1 was tested, and the IC50 [1] was > 100 µM, the IC50 [2] was 16.8 µM and the IC50 [3] was > 100 µM. It also gave an IC50 [4] of 45.4 µM, an IC50 [5] of 82.5 µM and an IC50 [8] of 22 µM. For the same compound, the IC50 [6] was 66.9 µM and the IC50 [7] was > 100 µM.
In the case of COc1cc(/C=C/C(=O)/C=C(O)/C=C/c2ccc(-n3cccn3)c(OC)c2)ccc1-n1cccn1, the IC50 [1] is reported as > 100 µM, the IC50 [2] is reported as > 100 µM and the IC50 [3] is reported as > 100 µM. For the same compound, the IC50 [4] was > 100 µM, the IC50 [5] was > 100 µM and the IC50 [6] was > 100 µM. For the same compound, the IC50 [7] was > 100 µM.
In the case of COc1cc(/C=C/C(=O)/C=C(O)/C=C/c2ccc(-n3cnc4ccccc43)c(OC)c2)ccc1-n1cnc2ccccc21, the IC50 [1] is reported as > 100 µM, the IC50 [2] is reported as > 100 µM and the IC50 [3] is reported as > 100 µM. The IC50 [4] was > 100 µM, the IC50 [5] was > 100 µM and the IC50 [6] was > 100 µM. For the same compound, the IC50 [7] was > 100 µM.
For COc1cc(/C=C/C(=O)/C=C(O)/C=C/c2ccc(I)c(OC)c2)ccc1I, the IC50 [1] was > 100 µM, the IC50 [2] was > 100 µM and the IC50 [3] was > 100 µM. For the same compound, the IC50 [4] was > 100 µM, the IC50 [5] was > 100 µM and the IC50 [8] was > 100 µM. For the same compound, the IC50 [6] was > 100 µM and the IC50 [7] was > 100 µM.
COc1cc(/C=C/C(=O)/C=C(O)/C=C/c2ccc(Br)c(OC)c2)ccc1Br was tested, and the IC50 [1] was > 100 µM, the IC50 [2] was 55.9 µM and the IC50 [3] was > 100 µM. The IC50 [4] was > 100 µM, the IC50 [5] was > 100 µM and the IC50 [8] was 84.8 µM. For the same compound, the IC50 [6] was > 100 µM and the IC50 [7] was > 100 µM.
COc1cc(/C=C/C(=O)/C=C(O)/C=C/c2ccc(N)c(OC)c2)ccc1N was tested, and the IC50 [1] was > 100 µM, the IC50 [2] was 15.8 µM and the IC50 [3] was > 100 µM. The IC50 [4] was > 100 µM, the IC50 [5] was > 100 µM and the IC50 [8] was 24.5 µM. The IC50 [6] was > 100 µM and the IC50 [7] was > 100 µM.
For COc1cc(/C=C/C(=O)/C=C(O)/C=C/c2ccc(NC(C)=O)c(OC)c2)ccc1NC(C)=O, the IC50 [1] was > 100 µM, the IC50 [2] was 7.2 µM and the IC50 [3] was > 100 µM. It also gave an IC50 [4] of 37.1 µM, an IC50 [5] of 71.6 µM and an IC50 [8] of 7.1 µM. The IC50 [6] was 55.5 µM and the IC50 [7] was > 100 µM.
For CNc1ccc(/C=C/C(=O)/C=C(O)/C=C/c2ccc(NC)c(OC)c2)cc1OC, the IC50 [1] was > 100 µM, the IC50 [2] was > 100 µM and the IC50 [3] was > 100 µM. For the same compound, the IC50 [4] was > 100 µM, the IC50 [5] was > 100 µM and the IC50 [8] was > 100 µM. For the same compound, the IC50 [6] was > 100 µM and the IC50 [7] was > 100 µM.
COc1cc(/C=C/C(=O)/C=C(O)/C=C/c2ccc(C(N)=O)c(OC)c2)ccc1C(N)=O was tested, and the IC50 [1] was > 100 µM, the IC50 [2] was 9.4 µM and the IC50 [3] was 49.2 µM. For the same compound, the IC50 [4] was 23.8 µM, the IC50 [5] was 43.6 µM and the IC50 [8] was 7.7 µM. For the same compound, the IC50 [6] was 38.3 µM and the IC50 [7] was > 100 µM.
COc1cc(/C=C/C(=O)CC(=O)/C=C/c2ccc(O)c(OC)c2)ccc1O [CURCUMIN] showed an IC50 [1] of 56.9 µM, an IC50 [2] of 13.8 µM and an IC50 [4] of 27.4 µM. The IC50 [5] was 31.6 µM, the IC50 [8] was 13.8 µM and the IC50 [6] was 37.7 µM. It also gave an IC50 [7] of 42.6 µM.
